# Source: article PMC5380659, “Unique charge-dependent constraint on collagen recognition by integrin α10β1” (Matrix Biology, 2017)
# Entries after “also recorded” stand apart in the source; their conditions may differ.
# B1: collagen III: intact collagen III (protein)
# chain: QQEAVEGGCSHLGQSYADRDVWKPEPCQICVCDSGSVLCDDIICDDQELDCPNPEIPFGECCAVCPQPPTAPTRPPNGQGPQGPKGDPGPPGIPGRNGDPGIPGQPGSPGSPGPPGICESCPTGPQNYSPQYDSYDVKSGVAVGGLAGYPGPAGPPGPPGPPGTSGHPGSPGSPGYQGPPGEPGQAGPSGPPGPPGAIGPSGPAGKDGESGRPGRPGERGLPGPPGIKGPAGIPGFPGMKGHRGFDGRNGEKGETGAPGLKGENGLPGENGAPGPMGPRGAPGERGRPGLPGAAGARGNDGARGSDGQPGPPGPPGTAGFPGSPGAKGEVGPAGSPGSNGAPGQRGEPGPQGHAGAQGPPGPPGINGSPGGKGEMGPAGIPGAPGLMGARGPPGPAGANGAPGLRGGAGEPGKNGAKGEPGPRGERGEAGIPGVPGAKGEDGKDGSPGEPGANGLPGAAGERGAPGFRGPAGPNGIPGEKGPAGERGAPGPAGPRGAAGEPGRDGVPGGPGMRGMPGSPGGPGSDGKPGPPGSQGESGRPGPPGPSGPRGQPGVMGFPGPKGNDGAPGKNGERGGPGGPGPQGPPGKNGETGPQGPPGPTGPGGDKGDTGPPGPQGLQGLPGTGGPPGENGKPGEPGPKGDAGAPGAPGGKGDAGAPGERGPPGLAGAPGLRGGAGPPGPEGGKGAAGPPGPPGAAGTPGLQGMPGERGGLGSPGPKGDKGEPGGPGADGVPGKDGPRGPTGPIGPPGPAGQPGDKGEGGAPGLPGIAGPRGSPGERGETGPPGPAGFPGAPGQNGEPGGKGERGAPGEKGEGGPPGVAGPPGGSGPAGPPGPQGVKGERGSPGGPGAAGFPGARGLPGPPGSNGNPGPPGPSGSPGKDGPPGPAGNTGAPGSPGVSGPKGDAGQPGEKGSPGAQGPPGAPGPLGIAGITGARGLAGPPGMPGPRGSPGPQGVKGESGKPGANGLSGERGPPGPQGLPGLAGTAGEPGRDGNPGSDGLPGRDGSPGGKGDRGENGSPGAPGAPGHPGPPGPVGPAGKSGDRGESGPAGPAGAPGPAGSRGAPGPQGPRGDKGETGERGAAGIKGHRGFPGNPGAPGSPGPAGQQGAIGSPGPAGPRGPVGPSGPPGKDGTSGHPGPIGPPGPRGNRGERGSEGSPGHPGQPGPPGPPGAPGPCCGGVGAAAIAGIGGEKAGGFAPYYG
# System: C2C12-α10β1 cells
# Experiment: LDH-based SPBA of C2C12-α10β1 cell adhesion
# Design: species or system mouse
# Details: short THPs, 2 mM Mg^2 +, 1 h, Fig. 4B
# Description: The mouse myoblast cell line, C2C12-α10β1 clone, expresses α10β1 as its sole collagen-binding integrin [16]. To investigate the binding of α10β1 to collagen in a cellular and whole integrin context, therefore, the adhesion of C2C12-α10β1 cells to Toolkits II and III was performed using two different approaches. First, SPBA was used, with lactate dehydrogenase to report the presence of adherent cells, after lysis, as described in Experimental. […] C2C12-α10B1 cells generally bound more prominently to those weaker peptides that supported just-observable binding of free I-domain. This may reflect avidity of the receptor-populated cell surface for the peptide-coated wells, or perhaps up-regulation of integrin affinity following receptor engagement. It is also possible that some cell binding reflects specific indirect interactions. For example, fibronectin, available either by intrinsic expression or from the serum supplement, binds well to II-44, and can also bind integrin αVβ3 [21].
# Fig. 2 Binding of α10β1-transfected C2C12 cells to Collagen Toolkits. 96-well plates were coated with peptides as for Fig. 1, then C2C12-α10β1 cells (5 × 10^4 per well) were added and incubated for 1 h in the presence of either 2 mM MgCl2 or 2 mM EDTA as above. A: binding to Toolkit II. B: binding to Toolkit III.
# (§1) The mouse myoblast cell line, C2C12, (control and transfectants, C2C12-α1β1, C2C12-α2β1, C2C12-α10β1 or C2C12-α11β1) was maintained in RPMI medium containing 10% fetal bovine serum, 2 mM glutamine, 100 IU/ml penicillin, 100 μg/ml streptomycin, and 2.5 μg/ml amphotericin. Cells were harvested by centrifugation, washed, and suspended at 0.5 × 10^6/ml in Tris-buffered saline supplemented with 5.5 mM glucose and either 2 mM EDTA or 2 mM MgCl2. SPBA was performed as follows: 100 μl of the cell suspension was added to peptide-coated wells [42] at 20 °C for 60 min. Cell adhesion was determined colorimetrically after lysis, using a lactate dehydrogenase (LDH)-based cell detection kit (Roche Diagnostics) according to the supplier's instructions.
row,Molecule,Adhesion of C2C12-α10β1 cells to short triple-helical peptides
1,GLKGEN [short triple-helical peptide containing GLKGEN],less well
2,"GLOGEA [short triple-helical peptide; motif in collagens IV, XI, XXVII]",bound strongly
3,GMOGER [short triple-helical peptide containing GMOGER],less well
4,"GFOGEK [short triple-helical peptide; motif in collagens IV, VI, X]",less well

# System: α10β1
# Experiment: Overall recognition by α10β1 (I domain and C2C12-α10β1 cells, summary)
# Details: abstract and discussion; I domain and/or C2C12-α10β1 cells
# Description: I domain adhesion was determined colorimetrically, as described, here termed solid phase binding assay (SPBA). Peptides were coated at 10 μg/ml for 1 h at 22 °C on Immulon-2 HB 96-well plates (Thermo Life Sciences, Basingstoke, UK), and blocked for 1 h with 200 μl of TBS containing 50 mg/ml bovine serum albumin. Wells were washed four times with 200 μl of the adhesion buffer (TBS with 1 mg/ml bovine serum albumin) before adding 100 μl of adhesion buffer containing 10 μg/ml of recombinant GST I domains in the presence of either 2 mM MgCl2 or EDTA for 1 h at room temperature. Wells were washed five times with 200 μl of adhesion buffer containing MgCl2 or EDTA, before adding 100 μl of adhesion buffer containing the anti-GST-HRP conjugate at 1:10,000 dilution for 1 h at room temperature. After washing, colour was developed using an ImmunoPure TMB Substrate Kit (Pierce) according to the manufacturer's instructions.
# as §1
# (§2) To quantitate C2C12-α10β1 binding to collagen peptides, we used the impedance-based xCELLigence system (Acea) that allows label-free, dynamic monitoring of cell adhesion in real-time. The assay system expresses the adhesion-dependent rise in well impedance in units of cell index (CI), defined as (Rn − Rb) / 15; where Rn is the electrical impedance of each cell-containing well and Rb is the background impedance of the well with medium alone
row,Molecule,"Recognition by α10β1, summary"
1,"GAOGER [integrin motif in collagens II, III, IV, VI, VII, IX]",weak ligand
2,GKOGER [motif occurring only in collagen X and in the α2 chain of collagen I],compromised in the context of α10β1; also recorded: α10-repellent
3,"GFOGEK [short triple-helical peptide; motif in collagens IV, VI, X]",now shown to bind α10β1
4,"GRSGET [short THP containing GRSGET, motif unique to collagen II]",not recognised by α10β1; also recorded: α10-repellent

# System: C2C12-α10β1 cells
# Experiment: xCELLigence real-time adhesion of C2C12-α10β1 cells
# Format: cell-based, mouse
# Details: 2.5 × 10^4 cells/well, 2 mM Mg^2 +, over 1 h, Fig. 3A
# Description: Fig. 3 Binding of α10β1-transfected C2C12 cells to collagens and selected Toolkit peptides. Peptides or collagens were coated on ePlates as described, then cells were added in the presence of 2 mM Mg^2 + or EDTA, and Cell Index value was collected over 1 h. […] B: time courses are shown of adhesion to selected Toolkit peptides or GPP-10.
# as §2
# Briefly, C2C12 cells were seeded at 2.5 × 10^4 cells/well in an E-plate (Roche Applied Science) pre-coated with peptides as for SPBA, and CI was measured for up to 2 h.
row,Molecule,"Cell adhesion to collagens (Cell Index, endpoint)"
1,B1,bound quite well
